We go through ten molecules from EP1344834A2, “Methods for the toxicity prediction of a compound” (F. HOFFMANN-LA ROCHE AG, priority 2002, dated 2003).

Like-named read-outs stand apart in the source and are kept apart here.

For data set [1], the system named is expression profile in liver. Briefly: Support Vector Machine classification of liver expression profiles. To be noted: compounds not present in the initial training set; expression profiles of individual animals; Figures 8 and 9.
Method: Adult male Wistar rats were dosed in vivo and the resulting expression profile in liver was determined. SVMs were built for the discrimination between 3 different classes of hepatotoxicants, non-toxic substances and controls. The training set consisted of 180 gene expression profiles from individual animals treated with direct acting, cholestatic, steatotic, non-toxic compounds and corresponding vehicle-dosed controls. As a first step the chips were rescaled to a median value of 0 and a standard deviation of 1. […] Multi-class classification for a given test chip was then carried out by combining the outputs of all binary. classifiers. A leave-one-out cross validation procedure was applied to assess the quality of the trained machines with respect to the training data. […] By removing all replicates of one compound from the training data, followed by classifying these chips with the resulting decision function, the individual contribution of the given compound for a successful classifier could be examined. RFE was used to investigate the relationship between the number of genes for generating the classifiers, the resulting prediction accuracy, cross-validation errors and the number of used support vectors. The first iteration reduced the gene count to a multiple of 2. In each subsequent iteration the gene count was halved until 32 genes remained. […]
Data set [2] relates to genes from the GADD family. The experiment in a line: RT-PCR confirmation of induction of GADD family genes by direct acting compounds. The class given is in vivo, Wistar rats. Particulars: rat liver (summary of Table 9). As to the method: (§1) The quality of RNA was assessed with gel electrophoresis.
(§2) The induction of these genes correlates with the histopathological findings in a time related fashion: While PEG-3 seems to be an early marker, GADD-45 and […] appear regulated at later time points, when the tissue damage is obvious by conventional endpoints.

A further data set deals with Gadd153. Briefly: Quantitative RT-PCR of GADD-family genes in liver after in vivo dosing. On the set-up: species or system Wistar rats. To be noted: control = 1.0. On the procedure:
as §1, §2

Another data set has as its system Gadd45. The data set is described as above. More on the design: species or system Wistar rats. Particulars: control = 1.0. On the procedure: as §1, §2
A further data set concerns PEG3. The data set is described as above. On the set-up: species or system Wistar rats. To be noted: control = 1.0. On the procedure: as §1, §2
A further data set concerns EGR-1. The experiment in a line: Quantitative RT-PCR of EGR-1 in liver after in vivo dosing. More on the design: species or system rats. Particulars: every 12 Hours, sacrificed 3 hours after the last administration, control = 1.0. On the procedure: as §1
(§3) Tolcapone (Tasmar) is a human hepatotoxin with no known toxicity in the rat.

Another data set relates to EGR1. Briefly: Gene expression analysis (GeneChip) of EGR1 after exposure of rats. The format is in vivo. To be noted: high inter-individual variability. On the procedure: as §1, §3
The next data set concerns PC3 (BTG2). To be noted: rat, in vivo.
Data set [3] concerns AH-R. Particulars: rat, in vivo.
Method: (§4) Male Wistar rats (generally 5 animals/dose-group) were purchased from BRL (Fullingsdorf, Switzerland) and housed individually. Treated animals were dosed either orally, intraperitoneally, or intravenously with several doses of test compounds (Table 1). The test compounds were categorized according to their toxic manifestation in the rat liver. Control animals received the same volume of vehicle as placebo. Necropsy was performed 6 or 24 hours after a single administration and liver samples from the left medial lobe were placed immediately in RNALater (Ambion, TX, USA) for RNA extraction and gene expression analysis. Samples in RNALater were stored at -20°C until further processing.
(§5) RNA isolation from hepatocytes was typically performed by resuspending approximately 3 Mio. Cells/1.2 mL RNAzol (Tel-Test Inc., TX, USA). […] Total RNA was isolated according to the manufacturer's instruction and quantified by measuring the optical density at 280 nm. The quality of RNA was assessed with gel electrophoresis.
(§6) The regulation of the mRNA levels of several candidate genes (Table 4) was verified with quantitative RT-PCR. […] For each performed RT-PCR reaction, the specificity of the assay was evaluated with dissociation curve software (Applied Biosystems), as well as by assessment of the size of the product using either gel electrophoresis or Agilent Bioanalyzer. […]
Data set [4] has as its system AH-R. To be noted: rat, in vivo. This is another data set of the same source.
Method: as §4
(§7) RNA isolation from hepatocytes was typically performed by resuspending approximately 3 Mio. Cells/1.2 mL RNAzol (Tel-Test Inc., TX, USA). […] Total RNA was isolated according to the manufacturer's instruction and quantified by measuring the optical density at 280 nm. The quality of RNA was assessed with gel electrophoresis. […]
(§8) After hybridization and scanning, the expression level of each gene was calculated by subtracting the fluorescence intensity of the mismatch probes from the match signal (=average difference) using the [sequence] […] Gene expression data were further analyzed with an in-house-developed data analysis tool (RACE-A, Hoffmann-La Roche, Basel, Switzerland). […]
Data set [5] relates to CYP2B2. To be noted: rat, in vivo.
Method: as §4, §7, §8
Data set [6] deals with CYP2B2. Particulars: rat, in vivo. This is another data set of the same source.
Method: as §4, §5, §6
For data set [7], the system named is marker genes. Particulars: rat, in vivo.
Method: as §4, §5, §6
A further data set deals with CYP2B. The experiment in a line: Western-blot of liver extracts with antibody specific for CYP2B. The class given is in vivo, rat. As to the method: In addition, Western blots were performed using specific antibodies against the cytochrome P450 CYP2B family in order to evaluate if the clear induction of messenger RNA also led to an increase in the hepatic protein levels. […] This is due to the time lag between protein and mRNA induction (Fig. 11).

Data set [8] has as its system marker genes. The experiment in a line: RT-PCR of marker genes, differentiation of toxic and non-toxic 5-HT6 receptor antagonists (Fig. 10). To be noted: rat liver, some of the selected genes.
Method: as §4, §5, §6
The mark [9] stands for this setting: 10 mg/kg, sampling time 2 hours.
[10] abbreviates: 10 mg/kg, sampling time 6 hours.
The mark [11] stands for this setting: 10 mg/kg, sampling time 24 hours.
Where [12] appears, read: 60 mg/kg, sampling time 2 hours.
The mark [13] stands for this setting: 60 mg/kg, sampling time 6 hours.
Where [14] appears, read: 60 mg/kg, sampling time 24 hours.
The mark [15] stands for this setting: 4500 mmol/kg, sampling time 2 hours.
Setting [16] is: 4500 mmol/kg, sampling time 6 hours.
Where [17] appears, read: 4500 mmol/kg, sampling time 24 hours.
The mark [18] stands for this setting: 2 mg/kg, sampling time 24 hours.
Where [19] appears, read: 50 mg/kg, sampling time 6 hours.

Method for PC3 (BTG2): as §4, §7, §8

In the case of `O=C(O)CCCCCCNC1c2ccccc2CCc2ccccc21` [amineptine], in data set [1], the “classification by support vector machines (identification of compound class)” value is on record as “steatotic compound”.

`NN` [Hydrazine]: the “induction of genes from the GADD family, namely GADD-45, GADD-153 and PEG-3” value (“induction of genes from the GADD family” for short) in data set [2] was “induction”. The “PCR Gadd153” value with Gadd153 (setting [9]) was determined as 2.2 fold induction; in the data set on Gadd153 (setting [10]) it was 4.0 fold induction; with Gadd153 (setting [11]) it was 0.4 fold induction; in the data set on Gadd153 (setting [12]), 1.0 fold induction; in the data set on Gadd153 (setting [13]), 0.9 fold induction; with Gadd153 (setting [14]), 1.7 fold induction. The “PCR Gadd45” value turned out to be 1.1 fold induction with Gadd45 (setting [9]); 9.9 fold induction with Gadd45 (setting [10]); 0.2 fold induction in the data set on Gadd45 (setting [11]); 1.0 fold induction in the data set with Gadd45 (setting [12]); 1.8 fold induction in the data set on Gadd45 (setting [13]); 1.0 fold induction with Gadd45 (setting [14]). The “PCR PEG3” value came out at 3.4 fold induction in the data set with PEG3 (setting [9]); 6.3 fold induction in the data set on PEG3 (setting [10]); 2.1 fold induction with PEG3 (setting [11]); 20.4 fold induction in the data set on PEG3 (setting [12]); 3.8 fold induction with PEG3 (setting [13]); 11.9 fold induction in the data set on PEG3 (setting [14]).

For the molecule `Cc1ccc(C(=O)c2cc(O)c(O)c([N+](=O)[O-])c2)cc1` [Tolcapone (Tasmar), Tolcapone], the “PCR EGR-1” value in the data set with EGR-1 (300 mg/kg administered three times) is on record as 17.6 fold induction. Besides, in the data set on EGR1 (high dose 300 mg/kg), the “induction of EGR1” value was “slight induction”.

On to `O=[N+]([O-])c1ccc(O)c([N+](=O)[O-])c1` [Dinitrophenol], for which the “PCR EGR-1” value is given as 3.4 fold induction in the data set on EGR-1 (10 mg/kg administered three times) and 8.5 fold induction with EGR-1 (30 mg/kg administered three times). Further, in the data set with EGR1 (10 and 30 mg/kg), the “induction of EGR1” value is “slight induction”.

`Nc1ccc(S(=O)(=O)c2cc(Br)nc(N3CCCC3)c2)cc1` [Ro66-0074, 4-(2-Bromo-6-pyrrolidin-1-yl-pyridine-4-sulfonyl)-phenylamine]: the “PC3 (BTG2) Affymetrix” value in the data set on PC3 (BTG2) (360 min) is reported as 0.4; in the data set with PC3 (BTG2) (1440 min) it was 0.6. Also, the results for the “AH-R RT-PCR” value in the data set on AH-R [3] (360 min) and in the data set on AH-R [3] (1440 min) were 1.7 and 1.2, respectively. The “AH-R Affymetrix” value in the data set on AH-R [4] (360 min) and in the data set on AH-R [4] (1440 min) was 1.0 throughout. In addition, the results for the “CYP2B2 Affymetrix” value in the data set on CYP2B2 [5] (360 min) and in the data set on CYP2B2 [5] (1440 min) were -1.2 and 1.1, respectively. The “CYP2B2 RT-PCR” value with CYP2B2 [6] (360 min) worked out at 8.4; with CYP2B2 [6] (1440 min) it was 1.3. Besides, the “expression levels of few marker genes (RT-PCR, Fig. 10)” value in the data set with marker genes [7] is listed as “slight induction”.

On to `CCN(CC)C(=O)/C(C#N)=C/c1cc(O)c(O)c([N+](=O)[O-])c1` [Entacapone], for which the “PCR EGR-1” value with EGR-1 (600 mg/kg administered three times) is recorded as 1.0 fold induction.

As to `Clc1ccccc1Cl` [1,2-dichlorobenzene], the “classification by support vector machines (identification of compound class)” value in data set [1] was “direct acting compound”. Also, the “induction of genes from the GADD family” value in [2] is reported as “induction”. In addition, the entries for the “PCR Gadd153” value in the data set on Gadd153 (sampling time 2 hours), in the data set with Gadd153 (sampling time 6 hours) and with Gadd153 (sampling time 24 hours) were 0.9 fold induction, 0.6 fold induction and 27.9 fold induction, respectively. The results for the “PCR Gadd45” value in the data set with Gadd45 (setting [15]), in the data set with Gadd45 (setting [16]) and in the data set with Gadd45 (setting [17]) were 2.3 fold induction, 4.9 fold induction and 53.0 fold induction, respectively. For the same molecule, the results for the “PCR PEG3” value in the data set with PEG3 (sampling time 2 hours), with PEG3 (sampling time 6 hours) and in the data set on PEG3 (sampling time 24 hours) were 3.9 fold induction, 1.9 fold induction and 54.6 fold induction, respectively.

Consider “(4-Amino-N-(6-bromo-1 H -indol-4-yl)-benzenesulfonamide [Ro65-7199]”, for which, in the data set on CYP2B (6 hours after administration), the “induction of CYP2B (hepatic protein levels, Western blot)” value is “could not be detected”. Besides, the “protein levels of CYP2B (Western blot)” value with CYP2B (24 hours and 7 days after treatment) was “closely paralleled the amounts of mRNA”. Moreover, the “expression levels of few marker genes (RT-PCR, Fig. 10)” value in the data set with marker genes [8] was “larger effect”.

In the case of `Clc1ccc(Cl)cc1` [1,4-dichlorobenzene], the “PCR Gadd153” value with Gadd153 (sampling time 2 hours) is 1.0 fold induction; in the data set on Gadd153 (sampling time 6 hours) it was 0.9 fold induction; with Gadd153 (sampling time 24 hours), 2.4 fold induction. Besides, the results for the “PCR Gadd45” value in the data set with Gadd45 (setting [15]), in the data set with Gadd45 (setting [16]) and in the data set on Gadd45 (setting [17]) were 1.7 fold induction, 0.8 fold induction and 7.2 fold induction, respectively. Besides, the “PCR PEG3” value is on record as 0.8 fold induction in the data set on PEG3 (sampling time 2 hours), 0.7 fold induction in the data set on PEG3 (sampling time 6 hours) and 4.2 fold induction in the data set on PEG3 (sampling time 24 hours).

On to `CC(=N)S` [Thioacetamide], for which, in [2], the “induction of genes from the GADD family” value is given as “induction”. Besides, the “PCR Gadd153” value with Gadd153 (2 mg/kg, sampling time 6 hours) is on record as 0.9 fold induction; in the data set on Gadd153 (setting [18]), 0.0 fold induction; in the data set on Gadd153 (setting [10]), 1.3 fold induction; in the data set on Gadd153 (setting [11]), 0.9 fold induction; in the data set on Gadd153 (setting [19]), 2.5 fold induction. The “PCR Gadd45” value with Gadd45 (2 mg/kg, sampling time 6 hours) amounted to 8.1 fold induction; in the data set with Gadd45 (setting [18]), 0.0 fold induction; in the data set with Gadd45 (setting [10]), 2.9 fold induction; in the data set with Gadd45 (setting [11]), 1.7 fold induction; in the data set on Gadd45 (setting [19]), 27.6 fold induction. The “PCR PEG3” value worked out at 2.0 fold induction in the data set with PEG3 (2 mg/kg, sampling time 6 hours); 0.9 fold induction in the data set with PEG3 (setting [18]); 1.9 fold induction with PEG3 (setting [10]); 0.5 fold induction with PEG3 (setting [11]); 7.8 fold induction in the data set with PEG3 (setting [19]).
